# Several values for one entry are separate records, joined by “and”; a condition that tells them apart may be missing. Equal entries are not always repeated. Activity calls are given as the source filed them.
# Legend:
# Cytochrome P450 3A4 = Cytochrome P450 3A4 (Homo sapiens, UniProt P08684);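 further: CYP3A4 tested as one member of a cytochrome P450 panel screen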
# Cytochrome P450 2C9 = Cytochrome P450 2C9 (Homo sapiens, UniProt P11712)
# [1] = Luminescence Cell-Based Dose Retest to Confirm Inhibitors of Cancer Stem Cells. [Related pubchem assays (depositor defined):AID2717, AID2721]; format: functional; settings: Homo sapiens
# P388/ADR = assay: cells; format: functional; settings: Mus musculus
# SN12K1 = assay: cells; format: functional; settings: Homo sapiens
# P388 = assay: cells; format: functional; settings: Mus musculus
# [2] = Luminescence Cell-Based Dose Confirmation HTS to Identify Activators of 5'UTR Stem-Loop Driven Alpha-Synuclein mRNA Translation in H4 Neuroglioblastoma Cells. [Related pubchem assays: 1829 (Project Summary), 1814 (Primary HTS)]; format: functional
# [3] = Luminescence Cell-Based Dose Response HTS to Identify Activators of Luciferase Translation or Activity in H4 […] Cells. [Related pubchem assays: 1829 (Project Summary), 1814 (Primary HTS)]; format: functional
# H4 = assay: Luminescence Cell-Based Dose Response HTS to Identify Activators of 5'UTR Stem-Loop Driven Prion Protein mRNA Translation in H4 Neuroglioblastoma Cells. [Related pubchem assays: 1829 (Project Summary), 1814 (Primary HTS)]; format: functional; settings: Homo sapiens
# [4] = molecular target: T1, Heat shock factor protein 1 (Mus musculus, UniProt P38532); assay: enhancement of HSF1-driven luciferase signal – cell-based, NIH3T3, luminescence, dose retest, confirmation (AID 435004); format: functional;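 further: stress induced by proteasome inhibitor MG132 added 30 min after compound; luciferase reporter driven by HSF1 response element in NIH3T3 cells; actives raise luminescence as potentiators of the MG132 stress response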
# T1 sequence (P38532 whole entry): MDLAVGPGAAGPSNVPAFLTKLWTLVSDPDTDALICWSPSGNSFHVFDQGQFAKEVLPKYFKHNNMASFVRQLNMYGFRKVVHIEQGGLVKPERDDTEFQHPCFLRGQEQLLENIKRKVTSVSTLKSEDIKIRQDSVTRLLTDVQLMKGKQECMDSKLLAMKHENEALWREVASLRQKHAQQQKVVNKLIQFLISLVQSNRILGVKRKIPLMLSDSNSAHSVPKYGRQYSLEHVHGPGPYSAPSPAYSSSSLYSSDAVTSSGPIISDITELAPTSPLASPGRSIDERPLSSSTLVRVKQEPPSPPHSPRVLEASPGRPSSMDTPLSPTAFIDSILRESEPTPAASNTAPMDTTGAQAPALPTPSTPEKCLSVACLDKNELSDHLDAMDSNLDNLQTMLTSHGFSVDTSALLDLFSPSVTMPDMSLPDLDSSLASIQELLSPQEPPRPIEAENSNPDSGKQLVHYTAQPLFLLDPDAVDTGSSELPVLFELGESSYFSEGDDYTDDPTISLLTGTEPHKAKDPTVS
# [5] = molecular target: T2, Corticotropin-releasing factor receptor 2/Corticotropin-releasing factor-binding protein (Homo sapiens, UniProt P24387+Q13324); assay: Dose Response confirmation of uHTS hits for small molecule antagonists of the CRF-binding protein and CRF-R2 receptor complex.; format: functional; settings: read-out: IC50_Mean
# T2 sequence (Q13324 whole entry): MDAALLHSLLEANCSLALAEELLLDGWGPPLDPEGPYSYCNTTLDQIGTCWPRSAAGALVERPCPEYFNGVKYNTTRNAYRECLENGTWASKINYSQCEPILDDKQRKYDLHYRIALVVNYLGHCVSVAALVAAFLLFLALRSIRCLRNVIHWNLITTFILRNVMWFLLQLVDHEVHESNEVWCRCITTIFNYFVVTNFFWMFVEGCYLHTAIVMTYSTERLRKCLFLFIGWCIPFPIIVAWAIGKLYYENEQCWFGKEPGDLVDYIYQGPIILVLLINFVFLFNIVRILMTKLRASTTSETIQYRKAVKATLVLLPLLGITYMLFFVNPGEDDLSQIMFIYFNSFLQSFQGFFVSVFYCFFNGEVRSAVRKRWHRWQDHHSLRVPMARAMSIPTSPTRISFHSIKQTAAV
# T2 sequence (P24387 whole entry): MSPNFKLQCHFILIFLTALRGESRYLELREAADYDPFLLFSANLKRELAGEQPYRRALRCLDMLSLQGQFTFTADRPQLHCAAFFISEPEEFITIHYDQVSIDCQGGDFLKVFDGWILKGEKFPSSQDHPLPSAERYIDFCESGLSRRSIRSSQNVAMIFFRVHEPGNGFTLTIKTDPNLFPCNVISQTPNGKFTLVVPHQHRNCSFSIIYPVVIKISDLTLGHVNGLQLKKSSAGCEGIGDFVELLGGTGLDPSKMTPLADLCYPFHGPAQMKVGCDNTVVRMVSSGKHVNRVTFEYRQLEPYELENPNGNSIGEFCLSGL
# [6] = molecular target: T2, Corticotropin-releasing factor receptor 2/Corticotropin-releasing factor-binding protein; assay: activators of CRF receptor 2 with binding protein – uHTS hits, confirmation (AID 602473); format: functional; settings: read-out: EC50_Mean
# Cytochrome P450 1A2 = molecular target: T3, Cytochrome P450 1A2 (Homo sapiens, UniProt P05177);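 further: PubChem cytochrome P450 panel assay, CYP1A2 panel member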
# T3 sequence (P05177 whole entry): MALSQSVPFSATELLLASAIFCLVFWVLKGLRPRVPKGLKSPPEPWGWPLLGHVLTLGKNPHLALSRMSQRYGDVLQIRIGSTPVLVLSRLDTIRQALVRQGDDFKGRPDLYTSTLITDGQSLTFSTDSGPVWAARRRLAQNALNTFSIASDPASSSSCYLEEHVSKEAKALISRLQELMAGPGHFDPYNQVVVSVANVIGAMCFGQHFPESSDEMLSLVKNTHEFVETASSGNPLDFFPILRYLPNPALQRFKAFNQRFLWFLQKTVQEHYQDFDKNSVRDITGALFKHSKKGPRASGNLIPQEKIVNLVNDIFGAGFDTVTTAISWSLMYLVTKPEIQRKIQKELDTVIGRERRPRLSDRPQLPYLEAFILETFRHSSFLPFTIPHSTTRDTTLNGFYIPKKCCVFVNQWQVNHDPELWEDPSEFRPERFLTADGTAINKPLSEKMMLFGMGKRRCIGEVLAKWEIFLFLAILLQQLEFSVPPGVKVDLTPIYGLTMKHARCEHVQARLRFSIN
# Sequence of Cytochrome P450 3A4 (P08684 whole entry): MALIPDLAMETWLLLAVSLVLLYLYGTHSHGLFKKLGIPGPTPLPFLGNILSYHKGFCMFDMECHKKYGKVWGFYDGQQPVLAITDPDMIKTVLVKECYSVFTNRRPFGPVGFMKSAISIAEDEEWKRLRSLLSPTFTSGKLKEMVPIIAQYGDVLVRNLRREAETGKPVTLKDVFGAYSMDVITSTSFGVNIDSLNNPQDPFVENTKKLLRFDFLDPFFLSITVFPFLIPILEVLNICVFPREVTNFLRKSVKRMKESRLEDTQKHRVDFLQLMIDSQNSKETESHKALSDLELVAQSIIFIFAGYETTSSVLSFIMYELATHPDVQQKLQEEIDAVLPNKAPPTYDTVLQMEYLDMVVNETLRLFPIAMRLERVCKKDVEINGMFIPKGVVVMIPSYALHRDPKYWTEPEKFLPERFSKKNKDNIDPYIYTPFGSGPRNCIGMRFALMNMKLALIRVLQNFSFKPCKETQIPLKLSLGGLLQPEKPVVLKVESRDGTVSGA
# Sequence of Cytochrome P450 2C9 (P11712 whole entry): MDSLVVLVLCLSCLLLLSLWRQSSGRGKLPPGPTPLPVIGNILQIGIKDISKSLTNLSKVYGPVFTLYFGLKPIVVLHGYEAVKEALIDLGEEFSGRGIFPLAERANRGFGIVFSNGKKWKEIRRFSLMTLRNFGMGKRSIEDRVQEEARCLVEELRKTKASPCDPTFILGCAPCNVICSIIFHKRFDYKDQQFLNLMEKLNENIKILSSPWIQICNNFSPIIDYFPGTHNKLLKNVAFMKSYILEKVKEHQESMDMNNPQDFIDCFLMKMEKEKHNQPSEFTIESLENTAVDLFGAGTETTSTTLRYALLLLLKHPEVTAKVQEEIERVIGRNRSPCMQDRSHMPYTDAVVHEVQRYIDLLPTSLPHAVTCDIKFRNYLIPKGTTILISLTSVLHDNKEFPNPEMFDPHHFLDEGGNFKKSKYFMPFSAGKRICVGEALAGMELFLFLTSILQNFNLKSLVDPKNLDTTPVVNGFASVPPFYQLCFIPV
smiles,measurement,setting,value
COc1ccc(CNc2nc3nc4c(c(O)n3n2)CCC4)cc1,AC50,Cytochrome P450 3A4,39.8 µM (inconclusive)
same,AC50,Cytochrome P450 2C9,22.4 µM (inconclusive)
CC(=O)NC1=C(C#N)C(c2ccccc2)c2c(ccc3ccccc23)O1 (stereo not given),AC50,[1],0.733 µM (active)
COc1ccc2c(c1)[nH]c1c(=O)n(/N=C/C3C(C)C=C(C)CC3C)c(=O)[nH]c12 (stereo not given),AC50,[1],> 100 µM (inactive)
CCn1c(=O)c(C(=O)O)c(Cl)c2cc3c(cc21)OCO3,GI50,P388/ADR,> 100 µM (inactive)
same,GI50,SN12K1,> 100 µM (inactive)
same,GI50,P388,> 100 µM (inactive)
O=C(O)C(Cc1cccs1)NC(=O)C(F)(F)F (stereo not given),GI50,P388/ADR,> 100 µM (inactive)
same,GI50,SN12K1,> 100 µM (inactive)
same,GI50,P388,> 57.9 µM (inactive)
CN(CC(=O)Nc1ccc(Cl)c(Cl)c1)CC(=O)Nc1ccc2c(c1)OCO2,AC50,[1],10.2 µM (active)
CCCCCCCCCCCCOCCCOP(=O)([O-])OCC[N+](C)(C)C,GI50,P388/ADR,> 100 µM (inactive)
same,GI50,SN12K1,> 100 µM (inactive)
same,GI50,P388,27.9 µM (inactive)
COCCNC(=O)COc1ccc(OCCNC[C@@H](O)COc2ccccc2)cc1,AC50,Cytochrome P450 3A4,31.6 µM (inconclusive)
CC(C)CCCC(C)[C@H]1CCC(C2C[C@@H](O)[C@@H]3CC(O)[C@@H](O)C[C@]3(CO)C2=O)[C@]1(C)CCO (stereo not given in full),GI50,P388/ADR,27 µM (inactive)
same,GI50,SN12K1,18.7 µM (inactive)
same,GI50,P388,17.5 µM (inactive)
COCC(=O)N1CCC[C@@]2(CCN(Cc3ccc(C#N)cc3)C2)C1,AC50,Cytochrome P450 3A4,12.6 µM (inconclusive)
Cc1cc(C)nc(Nc2n[nH]c(COc3ccccc3)n2)n1,EC50,[2],4.85 µM (active)
same,EC50,[3],21.8 µM (active)
same,EC50,H4,> 120 µM (not active)
COc1ccc(C(=O)OCc2csc(C)n2)c(O)c1,EC50,[2],40.5 µM (active)
same,EC50,[3],> 120 µM (not active)
same,EC50,H4,79.1 µM (active)
O=c1onc2cnc3ccccc3n12,AC50,Cytochrome P450 3A4,31.6 µM (inconclusive)
same,AC50,Cytochrome P450 2C9,39.8 µM (inconclusive)
O=c1c(-c2ccccc2)nc2cnc(N3CCOCC3)nc2n1-c1ccccc1,AC50,Cytochrome P450 3A4,20 µM (inconclusive)
O=C1c2ccccc2C(O)(C(=O)O)C1(O)CC=C(Cl)Cl (stereo not given),GI50,P388/ADR,> 70.3 µM (inactive)
same,GI50,SN12K1,> 125 µM (inactive)
same,GI50,P388,> 125 µM (inactive)
CC1(C)N=C(N)N=C(N)N1c1ccc(CCc2ccccc2)cc1,GI50,P388/ADR,22.2 µM (inactive)
same,GI50,SN12K1,0.533 µM (active)
same,GI50,P388,< 0.01 µM (active)
C/C(=N/NC(=O)c1ccoc1C)C12CC3CC(CC(C3)C1)C2,EC50,[2],> 120 µM (not active)
same,EC50,[3],> 120 µM (not active)
same,EC50,H4,42.6 µM (active)
Nc1ncnc2c1nc(Cl)n2[C@@H]1O[C@@H]2COP(=O)(O)O[C@H]2[C@H]1O [TOCLADESINE],GI50,P388/ADR,4.53 µM (inactive)
same,GI50,SN12K1,7.26 µM (inactive)
same,GI50,P388,36.7 µM (inactive)
O=C(CN(c1ccc(Cl)cc1)S(=O)(=O)c1ccc(Cl)c([N+](=O)[O-])c1)NCCc1ccc(F)cc1,AC50,[1],2.15 µM (active)
Cn1cnnc1SCC(=O)n1c2ccccc2c2ccccc21,AC50,Cytochrome P450 3A4,25.1 µM (inconclusive)
same,AC50,Cytochrome P450 2C9,0.00562 µM (inconclusive)
CC(=O)Nc1ccc(S(=O)(=O)N/N=C/c2ccc(C)s2)cc1,EC50,[2],5.39 µM (active)
same,EC50,[3],33.8 µM (active)
same,EC50,H4,53.5 µM (active)
CC1CC(C)(O)C2C3(C)CCCC2(COC3=O)C12CCC1(CCOC1=O)O2 (stereo not given),GI50,P388/ADR,141 µM (inactive)
same,GI50,SN12K1,> 250 µM (inactive)
same,GI50,P388,> 250 µM (inactive)
Clc1ccc(-n2cc(COCc3ccccc3)nn2)cc1,EC50,[4],> 260 µM (inconclusive)
same,IC50,[5],> 47.1 µM (inactive)
same,EC50,[6],> 53 µM (inactive)
C[C@H]1CN([C@@H](C)CO)C(=O)Cc2cc(NC(=O)CCC(F)(F)F)ccc2O[C@H]1CN(C)Cc1ccc(-c2ccccc2)cc1,AC50,[1],4.88 µM (active)
COc1cc(-c2ccc3cc(OC)c(OC)c(OC)c3c2)cc(OC)c1OC,IC50,[5],> 47.1 µM (inactive)
same,EC50,[6],> 53 µM (inactive)
COc1ccc(/C=N/OCc2nc3c4c(ncn3n2)Oc2ccc3ccccc3c2C4c2ccccc2)cc1 (stereo not given),AC50,Cytochrome P450 3A4,39.8 µM (inconclusive)
same,AC50,Cytochrome P450 2C9,1.26 µM (inconclusive)
Cc1cc(/C=C(\C#N)C(=O)NCC2CCCO2)c(C)n1-c1ccc(Cl)cc1 (stereo not given),EC50,[2],10 µM (active)
same,EC50,[3],30.1 µM (active)
same,EC50,H4,8.94 µM (active)
CS(=O)(=O)OCCCNCCCOS(C)(=O)=O,GI50,P388/ADR,392 µM (inactive)
same,GI50,SN12K1,753 µM (inactive)
same,GI50,P388,418 µM (inactive)
Cc1ccccc1CSc1ccc(-c2ccc3c(c2)OCO3)nn1,AC50,[1],6.68 µM (active)
N=C(Nc1ccc(I)cc1)NC1C2CC3CC(C2)CC1C3 (stereo not given),AC50,Cytochrome P450 1A2,39.8 µM (inconclusive)
same,AC50,Cytochrome P450 3A4,15.8 µM (inconclusive)
CC(C)c1oc(=O)cc2c1C(O)C1OC(=O)C3(C)C(O)C4OC4C2(C)C13 (stereo not given) [NAGILACTONE],GI50,P388/ADR,2.52 µM (inactive)
same,GI50,SN12K1,1.46 µM (inactive)
same,GI50,P388,0.365 µM (active)
CC(=O)Nc1ccc(OCC(O)CN2CCN(c3cc(Cl)ccc3C)CC2)cc1 (stereo not given),AC50,[1],1.77 µM (active)
CCC(=O)Nc1ccc(NC(=O)c2oc3ccccc3c2C)cc1,IC50,[5],> 47.1 µM (inactive)
same,EC50,[6],> 53 µM (inactive)
CCN1C(=O)[C@H]2[C@H]3[C@H](O)[C@H](O)C/C(=N/O[C@@H](C)c4cn([C@H](CO)Cc5ccccc5)nn4)[C@@H]3CC[C@@H]2C1=O,AC50,Cytochrome P450 3A4,3.16 µM (inconclusive) and 5.01 µM (inconclusive)
OCC1OC(n2cnc3c2NC=NC[C@H]3O)C(O)C1O (stereo not given in full),GI50,P388/ADR,> 366 µM (inactive)
same,GI50,SN12K1,224 µM (inactive)
same,GI50,P388,> 366 µM (inactive)
O=C(CCl)Nc1cccc(S(=O)(=O)NC2=NCCC2)c1,EC50,[2],45.1 µM (active)
same,EC50,[3],62.6 µM (active)
same,EC50,H4,> 120 µM (not active)
C[C@]12CC[C@H](OC3OC(CO)C(O)C(O)C3O)C[C@H]1CC[C@@H]1[C@@H]2CC[C@]2(C)[C@@H](C3=CCOC3=O)CC[C@]12O (stereo not given in full) [ACTODIGIN],GI50,P388/ADR,6.12 µM (inactive)
same,GI50,SN12K1,11 µM (inactive)
same,GI50,P388,7.76 µM (inactive)
CCN1CCN(/C=N/c2nc(C)cs2)CC1,EC50,[2],14.2 µM (active)
same,EC50,[3],51.9 µM (active)
same,EC50,H4,> 120 µM (not active)

# Source: ChEMBL document CHEMBL1201862, “PubChem BioAssay data set” (2004)
